Holding throughout (format): in vivo
Experiment [1] has as its system housefly (Musca domestica). Briefly: Test method 7: coated container, housefly female adults. Conditions: Test Example 7-1, container coated at 40 mg/m^2 (800 ppm acetone solution), elapsed time 1 hour, 25° C., read-out: mortality of insects. As for the experimental part: An acetone solution which is adjusted to 800 ppm of the test compound is poured into a container having 20 mL contents, and the test compound is coated uniformly on inner face of the container so as to make 40 mg/m^2 thereof, and the container is then allowed to dry.
Into the container, five (5) housefly (Musca domestica) female adults are released into the container, and the container is then covered with the lid. […] Mortality (%)=(Number of dead insects/Number of tested insects)×100

Experiment [2] deals with common house mosquito (Culex pipiens pallens). In words: whole plant or invertebrate. Conditions: 24 h, Test Example 8, last instar larvae, after 1 day, 25° C., read-out: mortality of insects. The text has this:
Mortality (%)=(Number of dead insects/Number of tested insects)×100

Experiment [3] relates to Western corn rootworms (Diabrotica virgifera virgifera). Briefly: whole plant or invertebrate. Conditions: 120 h, Test Example 9-1, corn seedling immersed 30 seconds, second instar larvae, after 5 days, 25° C., read-out: mortality of insects. How it is done:
Each 1 mg of the test compounds is dissolved into 50 μL of a mixed solution of polyoxyethylene sorbitan mono-cocoate and acetone (polyoxyethylene sorbitan mono-cocoate:acetone=5:95 (v/v ratio)).
A young entire seedling of Corns (Zea mays) is immersed into the diluted solution for 30 seconds. […] Mortality (%)=(Number of dead insects/10}×100

For experiment [4], the system named is housefly (Musca domestica). Briefly: Test method 6: filter paper with sucrose bait, housefly female adults. Conditions: Test Example 6, 0.7 ml on filter paper with sucrose bait, after 24 hours, 25° C., read-out: mortality of insects. How it is done: A filter paper having a diameter of 5.5 cm in diameter is spread on the bottom of the cup, and then 0.7 ml of the diluted solutions are added dropwise to the filter paper and 30 mg of sucrose is uniformly placed on the filter paper as a bait. Ten (10) housefly (Musca domestica) female adults are released into the cup, and the cup is then covered with the lid. […] Mortality (%)=(Number of dead insects/Number of tested insects)×100

A value given as a limit tells only on which side of the number the result lay.

On to `CCSc1c(-n2nnc3ccc(C(F)(F)F)cc3c2=O)nc2ccc(Br)cn12` [Present compound 4-2], for which, in experiment [1], the mortality at 40 mg/m2 is ≥ 80%. In experiment [2], the mortality at 3.5 ppm is ≥ 91%. Moreover, the mortality at 500 ppm in experiment [3] was ≥ 80%.

For `CCSc1c(-n2cnc3cc(C(F)(F)F)ccc3c2=O)nc2ccc(Br)cn12` [Present compound 2-1], the mortality at 3.5 ppm in experiment [2] is ≥ 91%. Besides, the mortality at 500 ppm in experiment [3] is ≥ 80%.

For `CCSc1c(-n2cnc3cc(C(F)(F)F)ccc3c2=O)nc2cc(C(F)(F)F)ccn12` [Present compound 2-15], the mortality at 500 ppm in experiment [4] was ≥ 70%. In addition, the mortality at 3.5 ppm in experiment [2] was ≥ 91%.

Source of the values: patent US12478067B2, “Heterocyclic compound and harmful arthropod pest control composition containing same” (SUMITOMO CHEMICAL COMPANY, LIMITED, priority 2019, dated 2025).
